Several values for one entry are separate records, joined by “and”; a condition that tells them apart may be missing. Identical values can stand only once. Like-named read-outs stand apart in the source and are kept apart here.
Experiments:
[1] = In vitro DPPH radical scavenging assay; conditions: test sample 100 µg/ml, 100 µM methanolic DPPH, 30 min, 517 nm
Experimental: Antioxidant activity of the synthesised compounds (10 mg/ml) was evaluated using the radical scavenging capability against the stable free radical, 2,2′-diphenyl-1-picryl hydrazyl (DPPH·). The DPPH· scavenging capability was determined using UV based spectrophotometric assay. About 200 µl of the test sample solution (100 µg/ml) was added to 4 ml of 100 µM methanolic DPPH. […] Ascorbic acid (100 µg/ml) was used as reference. The percentage inhibition of DPPH activity was estimated using the formula: Percent (%) inhibition of DPPH activity = Acontrol-Asample/Acontrol×100 where Acontrol is the absorbance of DPPH· in methanol without an antioxidant and Asample is the absorbance of DPPH· in the presence of an antioxidant.

MAO-A = molecular target: T1, MAO-A (Rattus norvegicus, UniProt P21396); experiment: In vitro MAO-A inhibition assay (rat brain mitochondria, serotonin substrate); type: biochemical; conditions: rat brain mitochondria, serotonin substrate, mean ± SEM, triplicate
T1 construct: employing crude rat brain mitochondrial suspension; from tissue; host or cells: brain mitochondria of adult Wistar rats
T1 sequence (P21396 1-526): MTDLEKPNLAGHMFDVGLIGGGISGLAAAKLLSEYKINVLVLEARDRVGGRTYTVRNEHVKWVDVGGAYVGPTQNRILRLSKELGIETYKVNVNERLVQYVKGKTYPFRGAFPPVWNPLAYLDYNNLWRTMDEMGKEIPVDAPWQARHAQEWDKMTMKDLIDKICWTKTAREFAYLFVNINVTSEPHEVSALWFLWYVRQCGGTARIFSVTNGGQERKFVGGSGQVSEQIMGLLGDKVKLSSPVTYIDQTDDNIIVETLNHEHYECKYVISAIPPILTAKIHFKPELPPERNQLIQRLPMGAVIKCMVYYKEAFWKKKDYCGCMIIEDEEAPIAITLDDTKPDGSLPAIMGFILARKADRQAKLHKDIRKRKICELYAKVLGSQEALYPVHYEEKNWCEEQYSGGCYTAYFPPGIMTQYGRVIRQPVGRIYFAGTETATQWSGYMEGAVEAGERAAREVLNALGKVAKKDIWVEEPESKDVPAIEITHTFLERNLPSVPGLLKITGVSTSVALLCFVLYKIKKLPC
Experimental: (§1) Rat brain mitochondria were used as a source of MAO isoforms. All operations were carried out at 4 °C[50]. Male and female adult Wistar rats weighing 200–220 g were decapitated. All brains were rapidly removed and homogenised with a Potter–Elvehjem homogeniser in cold 0.32 M sucrose and 50 mM Tris-HCl, pH 8.2 (10:1, v/w). The homogenate was centrifuged twice at 1000 g for 5 min at 4 °C. The resulting supernatant was centrifuged at 20,000 g for 20 min. The mitochondrial pellet obtained was suspended in 100 mM sodium phosphate buffer, pH 7.4 (4:1, v/w), fractionated in plastic vials to 500 µl samples and stored at −80 °C. Before use, mitochondria were diluted with 100 mM sodium phosphate buffer to give a working solution of 0.80 mg of protein per millilitre.
(§2) The experiments were carried out under all the suitable laboratory conditions. […] An aliquot was made to contain mixture of 55 µl mitochondrial suspension (0.80 mg of protein/ml), 90 µl 50 mM Tris-HCl buffer, pH 8.2 and 30 µl solubilising solution (control or inhibitor solution at five different concentrations). The reaction was initiated by adding 25 µl of serotonin (4 mM, substrate for MAO-A) and 25 µl benzylamine (0.1 M, substrate for MAO-B) for the determination of MAO-A and MAO-B activity, respectively. The mixture was incubated at 37 °C for 30 min and the reaction was stopped by the addition of 50 µl of 1 N HCl. The absorbance associated with the production of 5-hydroxyindolacetic acid was measured at 280 nm for the estimation of MAO-A while for MAO-B estimation, the absorbance was measured at 250 nm due to the formation of benzaldehyde. All the assays were performed in triplicate. Control experiments were carried out without inhibitor and blanks were run without mitochondrial suspension.
(§3) Data are expressed as mean ± standard error mean (SEM) of experiments performed in triplicate.
(§4) 0, 15, 30 and 60 min at 37 °C in Tris-HCl buffer (50 mM, pH 8.2). […] The reactions were further incubated at 37 °C for a further 15 min and the residual enzyme activities were measured and the bar graphs were constructed. All measurements were carried out in triplicate and are expressed as mean ± SEM.

MAO-B = molecular target: T2, MAO-B (Rattus norvegicus, UniProt P19643); experiment: biochemical; conditions: for SI (selectivity index for MAO-B): ratio of experimental IC50(MAO-A)/IC50(MAO-B)
T2 construct: employing crude rat brain mitochondrial suspension; from tissue; host or cells: brain mitochondria of adult Wistar rats
T2 sequence (P19643 1-520): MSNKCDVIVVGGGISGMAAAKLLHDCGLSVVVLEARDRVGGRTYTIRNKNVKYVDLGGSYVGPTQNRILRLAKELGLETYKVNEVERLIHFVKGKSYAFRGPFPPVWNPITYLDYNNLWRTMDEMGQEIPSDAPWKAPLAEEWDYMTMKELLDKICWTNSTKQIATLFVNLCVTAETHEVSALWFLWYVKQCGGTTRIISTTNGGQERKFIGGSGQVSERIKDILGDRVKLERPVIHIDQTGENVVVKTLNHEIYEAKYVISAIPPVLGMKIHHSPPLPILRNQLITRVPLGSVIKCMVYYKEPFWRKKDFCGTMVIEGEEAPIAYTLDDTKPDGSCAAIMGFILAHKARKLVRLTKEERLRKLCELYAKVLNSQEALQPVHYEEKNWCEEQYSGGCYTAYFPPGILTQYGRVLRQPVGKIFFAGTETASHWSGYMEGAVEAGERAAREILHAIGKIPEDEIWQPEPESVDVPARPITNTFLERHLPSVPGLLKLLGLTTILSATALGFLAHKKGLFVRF
Experimental: as §1, §2, §3, §4

rat brain AChE = molecular target: T3, rat brain AChE (Rattus norvegicus, UniProt P37136); experiment: biochemical; type: biochemical; conditions: for IC50: rat brain AChE, ACTI substrate, mean ± SEM, triplicate
T3 construct: the resulting clear supernatants obtained were used as enzyme sources; from tissue; host or cells: rat brain cortex homogenate, 10,000 g supernatant
T3 sequence (P37136 32-614): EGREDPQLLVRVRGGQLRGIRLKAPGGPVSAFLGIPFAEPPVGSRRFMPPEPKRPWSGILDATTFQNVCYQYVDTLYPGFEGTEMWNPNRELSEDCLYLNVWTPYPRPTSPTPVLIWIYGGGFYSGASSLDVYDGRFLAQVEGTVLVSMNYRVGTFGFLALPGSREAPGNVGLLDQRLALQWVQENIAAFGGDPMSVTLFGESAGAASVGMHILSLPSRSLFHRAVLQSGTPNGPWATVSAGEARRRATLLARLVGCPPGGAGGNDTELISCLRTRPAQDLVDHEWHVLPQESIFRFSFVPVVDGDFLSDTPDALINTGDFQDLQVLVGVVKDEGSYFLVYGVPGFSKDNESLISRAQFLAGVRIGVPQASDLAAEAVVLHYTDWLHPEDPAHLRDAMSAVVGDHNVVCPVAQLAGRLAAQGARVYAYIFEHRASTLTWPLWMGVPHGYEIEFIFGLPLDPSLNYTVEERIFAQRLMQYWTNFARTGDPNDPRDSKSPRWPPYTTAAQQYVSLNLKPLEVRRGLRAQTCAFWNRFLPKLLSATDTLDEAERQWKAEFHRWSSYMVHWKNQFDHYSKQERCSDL
Experimental: Rat brain was used as a source of AChE enzyme. Rats were separately decapitated, the brain cortices quickly removed, weighed and homogenised in cold 10 mM Tris-HCl buffer, pH 7.2, containing 160 mM sucrose. The homogenates were centrifuged at 10,000 g for 10 min at 4 °C, and the resulting clear supernatants obtained were used as enzyme sources that were divided into aliquots and stored at −20 °C.
About 30 µl of enzyme sample (AChE) was added to 60 µl of 20 mM sodium phosphate buffer (pH 7.4) and were incubated in the presence of 30 µl of 10 mM DTNB solution with different concentrations of the test compounds. The enzyme reaction was initiated by the addition of 30 µl of 0.8 mM ACTI. The mixtures were incubated for 15 min at 25 °C. […] Control experiments were carried out without inhibitor, and blanks were run without AChE enzyme. All the assays were performed in triplicate. IC50 values were determined using the GraphPad Prism 5.0 (San Diego, CA) and the results were expressed as mean ± SEM.
0, 15, 30 and 60 min at 25 °C in sodium phosphate buffer (20 mM, pH 7.4) and DTNB solution (10 mM). […] The reaction was further incubated at 25 °C for a further 15 min and the residual enzyme activities were measured and the bar graphs were constructed. All measurements were carried out in triplicate and are expressed as mean ± SEM.

mice = experiment: Neurotoxicity screening (rotarod test); type: in vivo; conditions: for Neurotoxicity (animals that exhibit toxicity / animals tested): 30 mg/kg i.p.
Experimental: The neurotoxicity screening was undertaken according to the method followed by the National Institute of Health, using their reported procedures[55]^,[56]. Male albino mice (CF-1 strain or Swiss, 18–25 g) were used as experimental animals. The animals were housed in metabolic cages, and allowed free access to food and water. The test compounds were suspended in 0.5% methylcellulose/water mixture or in polyethylene glycol (PEG 200).
Minimal motor impairment was measured in mice by the rotarod test. The mice were trained to stay on an accelerating rotarod that rotates at six revolutions per minute. The rod diameter was 3.2 cm. Trained animals were given i.p. injection of the selected inhibitors at a dose of 30 mg/kg. Neurotoxicity was indicated by the inability of the animal to maintain equilibrium on the rod for at least 1 min in each of the three trials.

[2] = read-out: MAO-A In vitro IC50 (µM) ± SEM
[3] = read-out: AChE In vitro IC50 (µM) ± SEM

SMILES: O=C1O[C@H]([C@@H](O)CO)C(O)=C1O [Ascorbic acid, reference compound]
- % inhibition of DPPH activity [1]: 61.24%

SMILES: CC(=NNC(=O)Nc1ncc([N+](=O)[O-])s1)c1ccc(F)cc1 [Compound 6, 1-(1-(4-Fluorophenyl)ethylidene)-4-(5-nitrothiazol-2-yl)semicarbazide]
- % inhibition of DPPH activity [1]: 30.43%
- IC50 (MAO-A; [2]): > 100 µM and 46100 µM
- logP (physchem; octanol/water): 1.3
- IC50 (MAO-B): 19.89 ± 0.032 µM
- SI (selectivity index for MAO-B) (MAO-B): 2316.04
- AChE: fold decrease in activity versus bromo substitution (compound 4) (rat brain AChE; halogen at carbimino terminal phenyl ring): > 1000 fold
- IC50 (rat brain AChE; [3]): 468 ± 4.98 µM

SMILES: CC(=NNC(=O)Nc1ncc([N+](=O)[O-])s1)c1ccc(O)cc1 [Compound 7, 1-(1-(4-Hydroxyphenyl)ethylidene)-4-(5-nitrothiazol-2-yl)semicarbazide]
- IC50 (MAO-A; [2]): 5899 ± 9.84 µM
- logP (physchem; octanol/water): 1.2
- IC50 (MAO-B): 14.75 ± 0.018 µM
- MAO-B: fold greater potency relative to compound 11 (MAO-B; ratio of IC50 values): ~16.37 fold
- SI (selectivity index for MAO-B) (MAO-B): 399.93
- IC50 (rat brain AChE; [3]): 12.7 ± 0.62 µM
- AChE: fold greater potency relative to compound 11 (rat brain AChE; ratio of IC50 values): ~46 fold
- Neurotoxicity (animals that exhibit toxicity / animals tested) (mice; 0.5 h): 0/4
- Neurotoxicity (animals that exhibit toxicity / animals tested) (mice; 1 h): 0/4
- Neurotoxicity (animals that exhibit toxicity / animals tested) (mice; 2 h): 0/4
- Neurotoxicity (animals that exhibit toxicity / animals tested) (mice; 4 h): 0/4

SMILES: CC(=NNC(=O)Nc1ncc([N+](=O)[O-])s1)c1ccc([N+](=O)[O-])cc1 [Compound 8, 1-(1-(4-Nitrophenyl)ethylidene)-4-(5-nitrothiazol-2-yl)semicarbazide]
- % inhibition of DPPH activity [1]: 11.60%
- IC50 (MAO-A; MAO-A In vitro IC50 (µM) ± SEM): 2743 ± 3.65 µM
- logP (physchem): 1.4
- IC50 (MAO-B): 23.88 ± 0.022 µM
- SI (selectivity index for MAO-B) (MAO-B): 114.86
- IC50 (rat brain AChE; AChE In vitro IC50 (µM) ± SEM): 45.5 ± 1.36 µM

SMILES: O=C(NN=C(CBr)c1ccc(Br)cc1)Nc1ncc([N+](=O)[O-])s1 [Compound 9, 1-(2-Bromo-1-(4-bromophenyl)ethylidene)-4-(5-nitrothiazol-2-yl)semicarbazide]
- % inhibition of DPPH activity [1]: 35.89%
- IC50 (MAO-A; [2]): 314 ± 1.89 µM
- IC50 (MAO-B): 0.313 ± 0.007 µM
- SI (selectivity index for MAO-B) (MAO-B): 1003.19
- IC50 (rat brain AChE; [3]): 3.926 ± 0.014 µM
- Neurotoxicity (animals that exhibit toxicity / animals tested) (mice; 0.5 h): 2/4
- Neurotoxicity (animals that exhibit toxicity / animals tested) (mice; 1 h): 1/4
- Neurotoxicity (animals that exhibit toxicity / animals tested) (mice; 2 h): 0/4
- Neurotoxicity (animals that exhibit toxicity / animals tested) (mice; 4 h): 0/4
- Neurotoxicity (verdict in words) (mice; 30 mg/kg, relative to phenytoin): moderately neurotoxic

SMILES: O=C(NN=Cc1ccc(Br)cc1)Nc1ncc([N+](=O)[O-])s1 [Compound 10, 1-(4-Bromobenzylidene)-4-(5-nitrothiazol-2-yl)semicarbazide]
- IC50 (MAO-A; [2]): 5153 ± 8.82 µM
- logP (physchem; octanol/water): 2.5
- IC50 (MAO-B): 5.451 ± 0.009 µM
- SI (selectivity index for MAO-B) (MAO-B): 945.33
- IC50 (rat brain AChE; [3]): 96.4 ± 2.81 µM

SMILES: O=C(NN=Cc1ccc(O)cc1)Nc1ncc([N+](=O)[O-])s1 [Compound 11, 1-(4-Hydroxybenzylidene)-4-(5-nitrothiazol-2-yl)semicarbazide]
- IC50 (MAO-A; [2]): 11340 ± 11.7 µM
- logP (physchem; octanol/water): 1.6
- IC50 (MAO-B): 241.5 ± 2.31 µM
- SI (selectivity index for MAO-B) (MAO-B): 46.96
- IC50 (rat brain AChE; [3]): 584 ± 7.92 µM

SMILES: COc1ccc(OC)c(C=NNC(=O)Nc2ncc([N+](=O)[O-])s2)c1 [Compound 15, 1-(2,5-Dimethoxybenzylidene)-4-(5-nitrothiazol-2-yl)semicarbazide]
- % inhibition of DPPH activity [1]: 10.58%
- IC50 (MAO-A; [2]): > 100 µM and 55000 µM
- IC50 (MAO-B): 11.1 ± 0.19 µM
- SI (selectivity index for MAO-B) (MAO-B): 4945.91
- IC50 (rat brain AChE; [3]): 872 ± 4.38 µM

SMILES: O=C1NC(=O)C(c2ccccc2)(c2ccccc2)N1 [Phenytoin, reference compound]
- Neurotoxicity (animals that exhibit toxicity / animals tested) (mice; 0.5 h): 0/4
- Neurotoxicity (animals that exhibit toxicity / animals tested) (mice; 1 h): 0/4
- Neurotoxicity (animals that exhibit toxicity / animals tested) (mice; 2 h): 0/4
- Neurotoxicity (animals that exhibit toxicity / animals tested) (mice; 4 h): 0/2
